The source of these data is paper PMC6642134, “Dopey1-Mon2 complex binds to dual-lipids and recruits kinesin-1 for membrane trafficking” (Nature Communications, 2019).

Series [1] concerns the target T1, GST-DEC (Dopey1 extreme C-terminal region) (Homo sapiens, UniProt B2RWN9).
T1 construct: DEC domain, residues 2146-2456, N-terminal GST fusion kept, E. coli BL21 DE3, detergent-free; dimeric through GST
T1 sequence (B2RWN9 2146-2456): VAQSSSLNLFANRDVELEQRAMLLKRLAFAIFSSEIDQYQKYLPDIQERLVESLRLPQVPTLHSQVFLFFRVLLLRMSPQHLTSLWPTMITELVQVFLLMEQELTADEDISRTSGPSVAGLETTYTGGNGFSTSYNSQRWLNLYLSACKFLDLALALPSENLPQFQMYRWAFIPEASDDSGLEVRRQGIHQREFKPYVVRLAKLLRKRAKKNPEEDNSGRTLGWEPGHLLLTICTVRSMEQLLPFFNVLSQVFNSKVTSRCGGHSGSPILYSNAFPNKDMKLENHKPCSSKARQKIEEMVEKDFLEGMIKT
The experiment in a line: liposome pull-down with diluted protein, Western blot. Type of series: binding. The settings on record: read-out: apparent affinity. In general terms: A western blot detects proteins with antibodies after separation by electrophoresis.

Series [2] deals with the molecule itself. The experiment in a line: single-molecule photo-bleaching steps (TIRF microscopy); GFP-fusion protein in HEK293T lysate (20 mM Tris pH 7.4) immobilised on a glass coverslip; photo-bleaching steps counted; expressed alone.

Turning to PI4P, the Kd in series [1] is roughly 1000 nM.

B1: Mon2, full length, transfected (natural protein, UniProt Q7Z3U7 1-1717, looked up)
chain: MSGTSSPEAVKKLLENMQSDLRALSLECKKKFPPVKEAAESGIIKVKTIAARNTEILAALKENSSEVVQPFLMGCGTKEPKITQLCLAAIQRLMSHEVVSETAAGNIINMLWQLMENSLEELKLLQTVLVLLTTNTVVHDEALSKAIVLCFRLHFTKDNITNNTAAATVRQVVTVVFERMVAEDERHRDIIEQPVLVQGNSNRRSVSTLKPCAKDAYMLFQDLCQLVNADAPYWLVGMTEMTRTFGLELLESVLNDFPQVFLQHQEFSFLLKERVCPLVIKLFSPNIKFRQGSSTSSSPAPVEKPYFPICMRLLRVVSVLIKQFYSLLVTECEIFLSLLVKFLDADKPQWLRAVAVESIHRFCVQPQLLRSFCQSYDMKQHSTKVFRDIVNALGSFIQSLFLVPPTGNPATSNQAGNNNLGGSVSAPANSGMVGIGGGVTLLPAFEYRGTWIPILTITVQGSAKATYLEMLDKVEPPTIPEGYAMSVAFHCLLDLVRGITSMIEGELGELETECQTTTEEGSSPTQSTEQQDLQSTSDQMDKEIVSRAVWEEMVNACWCGLLAALSLLLDASTDEAATENILKAELTMAALCGRLGLVTSRDAFITAICKGSLPPHYALTVLNTTTAATLSNKSYSVQGQSVMMISPSSESHQQVVAVGQPLAVQPQGTVMLTSKNIQCMRTLLNLAHCHGAVLGTSWQLVLATLQHLVWILGLKPSSGGALKPGRAVEGPSTVLTTAVMTDLPVISNILSRLFESSQYLDDVSLHHLINALCSLSLEAMDMAYGNNKEPSLFAVAKLLETGLVNMHRIEILWRPLTGHLLEVCQHPNSRMREWGAEALTSLIKAGLTFNHDPPLSQNQRLQLLLLNPLKEMSNINHPDIRLKQLECVLQILQSQGDSLGPGWPLVLGVMGAIRNDQGESLIRTAFQCLQLVVTDFLPTMPCTCLQIVVDVAGSFGLHNQELNISLTSIGLLWNISDYFFQRGETIEKELNKEEAAQQKQAEEKGVVLNRPFHPAPPFDCLWLCLYAKLGELCVDPRPAVRKSAGQTLFSTIGAHGTLLQHSTWHTVIWKVLFHLLDRVRESSTTADKEKIESGGGNILIHHSRDTAEKQWAETWVLTLAGVARIFNTRRYLLQPLGDFSRAWDVLLDHIQSAALSKNNEVSLAALKSFQEILQIVSPVRDSDKPETPPVVNVPVPVLIGPISGMSRPFVRTDSIGEKLGRYSSSEPPIVTDELEDLNLWWAAWNTWYRIGSESTKPPITFDKLTFIPSQPFLTALIQIFPALYQHIKTGFNMDDLQKLGVILHSAISVPISSDASPFILPSYTEAVLTSLQEAVLTALDVLQKAICVGPENMQIMYPAIFDQLLAFVEFSCKPPQYGQLETKHIANAKYNQIQLFAPAEWVALNYVPFAERSLEVVVDLYQKTACHKAVVNEKVLQNIIKTLRVPLSLKYSCPSESTWKLAVSSLLRVLSIGLPVARQHASSGKFDSMWPELANTFEDFLFTKSIPPDNLSIQEFQRNENIDVEVVQLISNEILPYANFIPKEFVGQIMTMLNKGSIHSQSSSFTEAEIDIRLREEFSKMCFETLLQFSFSNKVTTPQEGYISRMALSVLLKRSQDVLHRYIEDERLSGKCPLPRQQVTEIIFVLKAVSTLIDSLKKTQPENVDGNTWAQVIALYPTLVECITCSSSEVCSALKEALVPFKDFMQPPASRVQNGES
notes: Mon2, full length; One molecule for the differently tagged copies (GFP-Mon2 and DMyc-Mon2 in the self co-IP); GFP-Mon2 in photo-bleaching; DMyc-Mon2 co-expressed with GFP-Dopey1; also called GFP-Mon2; DMyc-Mon2; source: HEK293T, transfected, in lysate; HeLa, transfected (imaging); not shown: GFP or DMyc or another fluorescence protein (by experiment), N-terminal, kept
As to B1, the “stoichiometry N” value in series [2] was determined as 2.

The stoichiometry N is the number of molecules, sites or subunits per partner or assembly.
